# pEC50, pIC50: −log10 of the molar value.
# Columns and labels:
# [1] = target: T1, GHSR1a (Homo sapiens, UniProt Q92847); experiment: Calcium FLIPR assay, GHSR-1a antagonism (reduction of ghrelin response); assay type: cell-based; conditions: HEK293/GHSR1a cells, ghrelin 10 nM
# T1 construct: expressed in transfected cells; host or cells: HEK293
# Outline: (§1)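 Uses HEK293 cells expressing GHSR1a, loaded with calcium dye, with FLIPR fluorescence followed for 2 min after addition at t=20 s. Agonism: compound alone. Antagonism: compound with 10 nM ghrelin, potency from reduction of ghrelin response; EC50/IC50 from dose-response curves.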
# [2] = target: T1, GHSR1a; experiment: Calcium FLIPR assay, GHSR-1a agonism; assay type: cell-based; parameters: Emax: unit not given here; conditions: HEK293/GHSR1a cells
# Outline: as §1
# T1 sequence (Q92847 whole entry): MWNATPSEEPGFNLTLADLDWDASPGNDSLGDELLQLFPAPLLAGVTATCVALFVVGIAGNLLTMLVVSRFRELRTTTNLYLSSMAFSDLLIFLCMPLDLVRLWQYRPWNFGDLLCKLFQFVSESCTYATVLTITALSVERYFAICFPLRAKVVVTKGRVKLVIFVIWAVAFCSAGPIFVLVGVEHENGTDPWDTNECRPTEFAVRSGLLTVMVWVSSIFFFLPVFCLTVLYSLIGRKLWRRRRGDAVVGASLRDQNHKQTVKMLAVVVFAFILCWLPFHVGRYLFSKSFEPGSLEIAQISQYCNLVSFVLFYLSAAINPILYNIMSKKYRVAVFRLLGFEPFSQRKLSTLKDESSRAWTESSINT
Compound,pIC50 [1],pEC50 [2],Emax [2]
"Cc1cc(-c2ccc(C(C)NC(=O)N(C)C3CCN(C)CC3)c(Cl)c2Cl)ncn1 (centres unmarked) [Compound H0808, 3-(1-(2,3-dichloro-4-(6-methylpyrimidin-4-yl)phenyl)ethyl)-1-methyl-1-(1-methylpiperidin-4-yl)urea]",6.17,7.05,1494
"CC(NC(=O)N(C)C1CCN(C)CC1)c1ccc(-c2cccc(F)c2)c(Cl)c1Cl (centres unmarked) [Compound H0810, 3-(1-(2,3-dichloro-3′-fluoro-[1,1′-biphenyl]-4-yl)ethyl)-1-methyl-1-(1-methylpiperidin-4-yl)urea]",7.70,7.66,2339
"CC(NC(=O)N(C)C1CCN(C)CC1)c1ccc(C#CCN2CCN(C)CC2)c(Cl)c1Cl (centres unmarked) [Compound H0812, 3-(1-(2,3-dichloro-4-(3-(4-methylpiperazin-1-yl)prop-1-yn-1-yl)phenyl)ethyl)-1-methyl-1-(1-methylpiperidin-4-yl)urea]",5.92,5.82,871
CC(NC(=O)N(C)C1CCN(C)CC1)c1ccc(-c2cnc(N3CCCC3)nc2)c(Cl)c1Cl (centres unmarked) [Compound H0813],6.19,6.28,1605
"CCN1CCN(c2ncc(-c3ccc(C(C)NC(=O)N(C)C4CCN(C)CC4)c(Cl)c3Cl)cn2)CC1=O (centres unmarked) [Compound H0814, 3-(1-(2,3-dichloro-4-(2-(4-ethyl-3-oxopiperazin-1-yl)pyrimidin-5-yl)phenyl)ethyl)-1-methyl-1-(1-methylpiperidin-4-yl)urea]",6.03,7.82,1097
"CC(NC(=O)N(C)C1CCN(C)CC1)c1ccc(-c2ccc(C3CC3)nc2)c(Cl)c1Cl (centres unmarked) [Compound H0820, 3-(1-(2,3-dichloro-4-(6-cyclopropylpyridin-3-yl)phenyl)ethyl)-1-methyl-1-(1-methylpiperidin-4-yl)urea]",8.24,8.05,3955
"CC(NC(=O)N(C)C1CCN(C)CC1)c1ccc(-c2cnc(N3CCN(C)CC3)c(C#N)c2)c(Cl)c1Cl (centres unmarked) [Compound H0821, 3-(1-(2,3-dichloro-4-(5-cyano-6-(4-methylpiperazin-1-yl)pyridin-3-yl)phenyl)ethyl)-1-methyl-1-(1-methylpiperidin-4-yl)urea]",5.64,< 4.52,–
"CC#Cc1ccc(C(C)NC(=O)N(C)C2CCN(C)CC2)c(Cl)c1Cl (centres unmarked) [Compound H0832, 3-(1-(2,3-dichloro-4-(prop-1-yn-1-yl)phenyl)ethyl)-1-methyl-1-(1-methylpiperidin-4-yl)urea]",7.96,< 4.52,–
"CC(NC(=O)N(C)C1CCN(C)CC1)c1ccc(-c2cnn(C3CC3)c2)c(Cl)c1Cl (centres unmarked) [Compound H0842, 3-(1-(2,3-dichloro-4-(1-cyclopropyl-1H-pyrazol-4-yl)phenyl)ethyl)-1-methyl-1-(1-methylpiperidin-4-yl)urea]",7.19,7.17,1411
"Cc1nccnc1-c1ccc(C(C)NC(=O)N(C)[C@@H]2CCN(C)CC2(C)C)c(Cl)c1Cl (stereo partly drawn) [Compound H0843, 3-(1-(2,3-dichloro-4-(3-methylpyrazin-2-yl)phenyl)ethyl)-1-methyl-1-((R)-1,3,3-trimethylpiperidin-4-yl)urea]",7.46,7.29,1910
"CC(NC(=O)N(C)C1CCN(C)CC1)c1ccc(NC2CC2)c(Cl)c1Cl (centres unmarked) [Compound H0846, 3-(1-(2,3-dichloro-4-(cyclopropylamino)phenyl)ethyl)-1-methyl-1-(1-methylpiperidin-4-yl)urea]",6.77,6.89,3815
"CC(NC(=O)N(C)C1CCN(C)CC1)c1ccc(-c2ccc(C3CC3)cn2)c(Cl)c1Cl (centres unmarked) [Compound H0849, 3-(1-(2,3-dichloro-4-(5-cyclopropylpyridin-2-yl)phenyl)ethyl)-1-methyl-1-(1-methylpiperidin-4-yl)urea]",7.43,7.29,1383
"CC(NC(=O)N(C)C1CCN(C)CC1)c1ccc(-c2nc(C3CC3)no2)c(Cl)c1Cl (centres unmarked) [Compound H0851, 3-(1-(2,3-dichloro-4-(3-cyclopropyl-1,2,4-oxadiazol-5-yl)phenyl)ethyl)-1-methyl-1-(1-methylpiperidin-4-yl)urea]",7.96,8.22,3320
"CC(C)C#Cc1ccc(C(C)NC(=O)N(C)C2CCN(C)CC2)c(Cl)c1Cl (centres unmarked) [Compound H0852, 3-(1-(2,3-dichloro-4-(3-methylbut-1-yn-1-yl)phenyl)ethyl)-1-methyl-1-(1-methylpiperidin-4-yl)urea]",7.66,7.74,1683
"CC(NC(=O)C(C)N1CCN(C)CC1)c1ccc(-c2cnccn2)c(Cl)c1Cl (centres unmarked) [Compound H0853, N-(1-(2,3-dichloro-4-(pyrazin-2-yl)phenyl)ethyl)-2-(4-methylpiperazin-1-yl)propanamide]",5.82,< 4.52,–
"CC(NC(=O)N(C)C1CCN(C)CC1)c1ccc(-c2cnc(C3CC3)nc2)c(Cl)c1Cl (centres unmarked) [Compound H0854, 3-(1-(2,3-dichloro-4-(2-cyclopropylpyrimidin-5-yl)phenyl)ethyl)-1-methyl-1-(1-methylpiperidin-4-yl)urea]",7.19,7.62,3246
"CCC(NC(=O)N(C)C1CCN(C)C1)c1ccc(-c2cncc(F)n2)c(Cl)c1Cl (centres unmarked) [Compound H0864, 3-(1-(2,3-dichloro-4-(6-fluoropyrazin-2-yl)phenyl)propyl)-1-methyl-1-(1-methylpyrrolidin-3-yl)urea]",6.14,< 4.52,–

# Continued by rising pIC50 [1], values first:
pIC50 [1],pEC50 [2],Emax [2],Compound
5.92,< 4.52,–,"CC(NC(=O)N(C)C1CCN(C)CC1)c1ccc(-c2cnc(N3CCN(C)CC3)cn2)c(Cl)c1Cl (centres unmarked) [Compound H0822, 3-(1-(2,3-dichloro-4-(5-(4-methylpiperazin-1-yl)pyrazin-2-yl)phenyl)ethyl)-1-methyl-1-(1-methylpiperidin-4-yl)urea]"
5.92,< 4.52,–,"Cc1nccnc1-c1ccc(C(C)NC(=O)N(C)C2CCN(C)CC2)c(Cl)c1Cl (centres unmarked) [Compound H0831, 3-(1-(2,3-dichloro-4-(3-methylpyrazin-2-yl)phenyl)ethyl)-1-methyl-1-(1-methylpiperidin-4-yl)urea]"
5.92,< 4.52,–,"CC(NC(=O)N(C)C1CCN(C)CC1)c1ccc(-c2cnccn2)c2ccccc12 (centres unmarked) [Compound H0850, 1-methyl-1-(1-methylpiperidin-4-yl)-3-(1-(4-(pyrazin-2-yl)naphthalen-1-yl)ethyl)urea]"
6.15,< 4.52,–,"Cc1nccnc1-c1ccc(C(CC2CC2)NC(=O)N(C)C2CCN(C)CC2)c(Cl)c1Cl (centres unmarked) [Compound H0844, 3-(2-cyclopropyl-1-(2,3-dichloro-4-(3-methylpyrazin-2-yl)phenyl)ethyl)-1-methyl-1-(1-methylpiperidin-4-yl)urea]"
6.42,< 4.52,–,"CC(NC(=O)N(C)C1CCN(C)CC1)c1ccc(-c2cnc3ccccc3n2)c(Cl)c1Cl (centres unmarked) [Compound H0828, 3-(1-(2,3-dichloro-4-(quinoxalin-2-yl)phenyl)ethyl)-1-methyl-1-(1-methylpiperidin-4-yl)urea]"
6.47,< 4.52,–,"CC(NC(=O)N(C)C1CCN(C)CC1)c1ccc(-c2cnccn2)c(Cl)c1F (centres unmarked) [Compound H0856, 3-(1-(3-chloro-2-fluoro-4-(pyrazin-2-yl)phenyl)ethyl)-1-methyl-1-(1-methylpiperidin-4-yl)urea]"
6.59,< 4.52,–,"CC(NC(=O)N(C)C1CCN(C)CC1)c1ccc(C#CC2CC2)c(Cl)c1F (centres unmarked) [Compound H0855, 3-(1-(3-chloro-4-(cycloprropylethynyl)-2-fluorophenyl)ethyl)-1-methyl-1-(1-methylpiperidin-4-yl)urea]"
6.75,< 4.52,–,"Cc1cncc(-c2ccc(C(C)NC(=O)N(C)C3CCN(C)CC3)c(Cl)c2Cl)n1 (centres unmarked) [Compound H0815, 3-(1-(2,3-dichloro-4-(6-methylpyrazin-2-yl)phenyl)ethyl)-1-methyl-1-(1-methylpiperidin-4-yl)urea]"
6.83,6.66,2339,"CC(NC(=O)N(C)C1CCN(C)CC1)c1ccc(-c2ccc(C#N)cc2)c(Cl)c1Cl (centres unmarked) [Compound H0809, 3-(1-(2,3-dichloro-4′-cyano-[1,1′-biphenyl]-4-yl)ethyl)-1-methyl-1-(1-methylpiperidin-4-yl)urea]"
7.46,< 4.52,–,"CCCN(C(=O)NC(C)c1ccc(-c2cnccn2)c(Cl)c1Cl)C1CCN(C)CC1 (centres unmarked) [Compound H0827, 3-(1-(2,3-dichloro-4-(pyrazin-2-yl)phenyl)ethyl)-1-(1-methylpiperidin-4-yl)-1-propylurea]"
7.85,7.62,3669,"CC(NC(=O)N(C)C1CCN(C)CC1)c1ccc(-c2cnc(NC(=O)C3CC3)nc2)c(Cl)c1Cl (centres unmarked) [Compound H0807, N-(5-(2,3-dichloro-4-(1-(3-methyl-3-(1-methylpiperidin-4-yl)ureido)ethyl)phenyl)pyrimidin-2-yl)cyclopropanecarboxamide]"
8.40,8.05,5433,"CC(NC(=O)N(C)C1CCN(C)CC1)c1ccc(-c2cnc(NC3CC3)nc2)c(Cl)c1Cl (centres unmarked) [Compound H0805, 3-(1-(2,3-dichloro-4-(2-(cyclopropylamino)pyrimidin-5-yl)phenyl)ethyl)-1-methyl-1-(1-methylpiperidin-4-yl)urea]"
8.92,8.17,5751,"CNc1ncc(-c2ccc(C(C)NC(=O)N(C)C3CCN(C)CC3)c(Cl)c2Cl)cn1 (centres unmarked) [Compound H0806, 3-(1-(2,3-dichloro-4-(2-(methylamino)pyrimidin-5-yl)phenyl)ethyl)-1-methyl-1-(1-methylpiperidin-4-yl)urea]"
